Each structure is given as a SMILES string.

One test deals with NLRP3 inflammasome. In words: NLRP3 inflammasome activation: ASC-SPECK formation in gramicidin-stimulated THP-1 cells. To be noted: Homo sapiens, THP-1, inhibition of ASC SPECK formation; PMA-treated human monocytic THP-1 cells, compound 1 h before 12.5 μg/ml gramicidin, 3-hour treatment. The format is cell-based. The text has this:
Activation of the canonical NLRP3 inflammasome requires two steps, priming and activation. A priming signal such as a pathogen activated molecular patterns (PAMPs) or danger-activated molecular patterns (DAMPs) are recognized by Toll-like receptors leads to nuclear factor kappa B (NF-KB)-mediated signaling. […] The second step is activation which induces oligomerization of NLRP3 and subsequent assembly of NLRP3, apoptosis-associated speck-like protein containing a CARD (ASC), and procaspase-1 into an inflammasome complex. This triggers the transformation of procaspase-1 to caspase-1, and the production and secretion of mature IL-1β and IL-18 (Kim et al., J. Inflamm. 2015, 12, 41; Ozaki et al., J. Inflamm. Res. 2015, 8, 15-27; Rabeony et al., Eur. J. Immunol. 2015, 45, 2847). During inflammasome complex assembly, the oligomerization of NLRP3 triggers the nucleation of ASC and an event commonly referred to as “ASC SPECK” formation, as it is identified in the cell as a discrete puncta within the cell after staining and visualization of ASC using common immunocytochemical methods.
The ability of compounds to inhibit NLRP3 inflammasome activation was determined in vitro by monitoring formation of the ASC-SPECK in human monocytic THP-1 cells after stimulation. THP-1 cells (ATCC catalog #TIB-202) were maintained in complete growth media containing Roswell Park Memorial Institute RPMI (ATCC catalog #30-2001), 10% heat inactivated fetal bovine serum, 1× penicillin/streptomycin and 0.05 mM 2-mercaptoethanol. At the start of the assay, undifferentiated THP-1 cells were plated at a density of 20,000 cells per well in a 384-well plate (Poly-D-lysine coated Cell Carrier Ultra microplate, Perkin Elmer catalog #6057500) in complete growth media supplemented with 10 ng/ml phorbol 12-myristate 13-acetate (PMA; Sigma catalog #P8139), and then incubated overnight. The next day, media was replaced with assay media (RPMI (Gibco catalog #11875-093), 0.01% bovine serum albumin (BSA)). Compounds were serially diluted in DMSO and then added to wells one hour prior to the addition of 12.5 μg/ml Gramicidin (Enzo Lifescience, catalog #ALX-350-233-M005). All incubations were carried out at 37° C. (5% CO2/95% air). Following a 3-hour treatment with gramicidin, cells are fixed with 4% paraformaldehyde and stored at 4° C. until immunofluorescence staining.
Immunofluorescence staining: Anti-ASC antibody (MBL catalog #D086-3) was desalted and labeled with Alexa 488 antibody labeling kit (Thermo catalog #A20181) prior to use as described below. After fixation, the following steps were carried out at rt. Cells were first permeabilized with 0.3% polyethylene glycol tert-octylphenyl ether (Triton X-100) in phosphate-buffered saline (PBS) for 15 minutes and then incubated in blocking buffer containing 5% goat serum, 0.3% polyethylene glycol sorbitan monolaurate (Tween-20) and 0.03% sodium azide in PBS for 1 hour. Cells were stained with a mixture of ASC-Alexa 488 antibody (diluted 1:200 in blocking buffer) and nuclear stain DRAQ5 (1:5000 in blocking buffer, Thermo catalog #62251) in blocking buffer for 1 hour. Following a wash with 0.3% polyethylene glycol sorbitan monolaurate (Tween-20) in PBS, plates were imaged with an Opera Phenix High Content Screening System. The number of DRAQ5 positive cells containing ASC SPECKS were quantified in each well.
Data analysis: EC50 values were calculated by standard curve-fitting analysis using an internally developed program in TIBCO Spotfire software.
For the compound `Cc1cc(C(F)(F)F)cc(O)c1-c1cnc2cn([C@H]3CC[C@@H](O)CC3)nc2n1` [Example 44, 2-(2-((1S,4S)-4-hydroxycyclohexyl)-2H-pyrazolo[3,4-b]pyrazin-6-yl)-3-methyl-5-(trifluoromethyl)phenol], the EC50 came out at 121 nM.
`Cc1cc(C(F)(F)F)cc(O)c1-c1cnc2cn(C34CC(C#N)(C3)C4)nc2n1` [Example 8, 3-(6-(2-hydroxy-6-methyl-4-(trifluoromethyl)phenyl)-2H-pyrazolo[3,4-b]pyrazin-2-yl)bicyclo[1.1.1]pentane-1-carbonitrile]: the EC50 is 38 nM.
Still for that read-out and setting: the figure for `Cc1cc(C(F)(F)F)cc(O)c1-c1cnc2cn(C34COC(CO)(C3)C4)nc2n1` [Example 41, 2-[2-[1-(hydroxymethyl)-2-oxabicyclo[2.1.1]hexan-4-yl]pyrazolo[3,4-b]pyrazin-6-yl]-3-methyl-5-(trifluoromethyl)phenol] is 78 nM; for `Cc1cc(C(F)(F)F)cc(O)c1-c1cnc2cn([C@H]3C[C@@H](CC#N)C3)nc2n1` [Example 18, 2-((1s,3s)-3-(6-(2-hydroxy-6-methyl-4-(trifluoromethyl)phenyl)-2H-pyrazolo[3,4-b]pyrazin-2-yl)cyclobutyl)acetonitrile] it is 465 nM; for `Cc1cc(C(F)(F)F)cc(O)c1-c1cnc2cn([C@H]3COC[C@@H]3O)nc2n1` [Example 32, (3R,4S)-4-[6-[2-hydroxy-6-methyl-4-(trifluoromethyl)phenyl]pyrazolo[3,4-b]pyrazin-2-yl]tetrahydrofuran-3-ol] it is 34 nM.
Consider `Cc1cc(C(F)(F)F)cc(O)c1-c1cnc2cn(C3CC34CCOCC4)nc2n1` (racemic) [Example 23, (S and R)-2-(2-(6-oxaspiro[2.5]octan-1-yl)-2H-pyrazolo[3,4-b]pyrazin-6-yl)-3-methyl-5-(trifluoromethyl)phenol], for which the EC50 was found to be 461 nM.
The same measure, in the same setting: the figure for `Cc1cc(C(F)(F)F)cc(O)c1-c1cnc2cn(C34CC(CO)(C3)C4)nc2n1` [Example 43, 2-[2-[3-(hydroxymethyl)-1-bicyclo[1.1.1]pentanyl]pyrazolo[3,4-b]pyrazin-6-yl]-3-methyl-5-(trifluoromethyl)phenol] is 26 nM; for `Cc1cc(C(F)(F)F)cc(O)c1-c1cnc2cn(C3(C)CCOCC3)nc2n1` [Example 51, 3-methyl-2-[2-(4-methyltetrahydropyran-4-yl)pyrazolo[3,4-b]pyrazin-6-yl]-5-(trifluoromethyl)phenol] it is 142 nM.
On the same count and under the same terms, the figure for `Cc1cc(C(F)(F)F)cc(O)c1-c1cnc2cn(C34CCC(C#N)(C3)C4)nc2n1` [Example 47, 4-[6-[2-hydroxy-6-methyl-4-(trifluoromethyl)phenyl]pyrazolo[3,4-b]pyrazin-2-yl]bicyclo[2.1.1]hexane-1-carbonitrile] is 61 nM.
Consider `Cc1cc(C(F)(F)F)cc(O)c1-c1cnc2cn([C@]3(C)CCS(=O)(=O)C3)nc2n1` [Example 29, 3-methyl-2-[2-[(3R)-3-methyl-1,1-dioxo-thiolan-3-yl]pyrazolo[3,4-b]pyrazin-6-yl]-5-(trifluoromethyl)phenol], for which the EC50 was 232 nM.

The same test, now with this note: inhibition of ASC SPECK formation; PMA-treated human monocytic THP-1 cells, compound 1 h before 12.5 μg/ml gramicidin, 3-hour treatment.
Take `Cc1cc(C(F)(F)F)cc(O)c1-c1cnc2cn(C3CCc4nnc(C(F)(F)F)n4C3)nc2n1` (single isomer, unassigned) [Example 71, (S or R)-3-methyl-5-(trifluoromethyl)-2-(2-(3-(trifluoromethyl)-5,6,7,8-tetrahydro-[1,2,4]triazolo[4,3-a]pyridin-6-yl)-2H-pyrazolo[3,4-b]pyrazin-6-yl)phenol]: the EC50 was 198 nM.
Still for that read-out and setting: the figure for `Cc1cc(C(F)(F)F)cc(O)c1-c1cnc2cn(CC3CC(=O)N(C(C)C)C3)nc2n1` (single isomer, unassigned) [Example 81, (S or R)-4-((6-(2-hydroxy-6-methyl-4-(trifluoromethyl)phenyl)-2H-pyrazolo[3,4-b]pyrazin-2-yl)methyl)-1-isopropylpyrrolidin-2-one] is 437 nM.

Broadly, the EC50 is the concentration at which the effect is half-maximal.

Source of the values: patent US20250195511A1, “INDAZOLE DERIVATIVES USEFUL AS INHIBITORS OF NOD-LIKE RECEPTOR PROTEIN 3” (Merck Sharp & Dohme LLC, priority 2023, published 2025).
